# Experimental data: patent publication EP0554004A2, “Cephem compounds and antibacterial agents” (KATAYAMA SEIYAKUSYO CO. Ltd., priority 1992, dated 1993)
# Experiments:
# clinically isolated MRSA [1] = assay: Antibacterial potency against clinically isolated MRSA (Test Example 2); assay type: cell-based, methicillin-resistant Staphylococcus aureus; details: Staphylococcus aureus, 52 strains of clinically isolated MRSA
# Procedure: A test on the antibacterial potency against clinically isolated MRSA was conducted in the following way.
# (§1) 52 strains of clinically isolated MRSA were used, and MIC was determined for each of the strains according to the standard method of the Japan Chemotherapical Society as in Test Example 1. The minimum growth inhibitory concentration which inhibited growth of 50% of the strains tested was expressed as MIC50 (µg/ml), and the minimum growth inhibitory concentration which inhibited growth of 90% of the strains was expressed as MIC90 (µg/ml).
# In this test, FMOX (flomoxef), IPM/CS (imipenem/cilastatin), CMZ (cefmetazole), MINO (minocycline) and DMPPC (methicillin) were used as control agents.
# A. calcoaceticos T59 = assay: MIC against standard strains (Test Example 3); assay type: cell-based; details: A. calcoaceticos T59 (Test Example 3); read-out: MIC
# Procedure: (§2) By using each test strain cultured overnight at 37°C in a Muller-Hinton broth, there was prepared a bacterial solution with a bacterial cell population of 1 x 10^6 CFU/mi of the same bouillon. The bacterial solution was inoculated into the Muller-Hinton agar media each containing respectively one test agent and, after overnight incubation at 37°C, the minimum concentration that inhibited growth of the bacteria was determined and shown as MIC also in Table 1.
# (§3) The minimum growth inhibitory concentration was determined for each of the 21 standard strains shown in Table 3, according to the same method as used in Test Example 1.
# (§4) In the test, FMOX (flomoxef), CTM (cefotiam) and CEZ (cefazolin) were used as control agents.
# A. faecalis ATCC3750 = assay: MIC against standard strains (Test Example 3); assay type: cell-based; details: Alcaligenes faecalis; A. faecalis ATCC3750 (Test Example 3); read-out: MIC
# Procedure: as §2, §3, §4
# B. subtilis ATCC6633 = assay: MIC against standard strains (Test Example 3); assay type: cell-based; details: Bacillus subtilis; B. subtilis ATCC6633 (Test Example 3); read-out: MIC
# Procedure: as §2, §3, §4
# C. freundii ATCC8090 = assay: MIC against standard strains (Test Example 3); assay type: cell-based; details: Citrobacter freundii; C. freundii ATCC8090 (Test Example 3); read-out: MIC
# Procedure: as §2, §3, §4
# E. cloacae ATCC13407 = assay: MIC against standard strains (Test Example 3); assay type: cell-based; details: Enterobacter cloacae; E. cloacae ATCC13407 (Test Example 3); read-out: MIC
# Procedure: as §2, §3, §4
# E. coli CSH2 (RE45) = assay: MIC against standard strains (Test Example 3); assay type: cell-based; details: Escherichia coli
# Procedure: as §2, §3, §4
# E. coli CSH2 (RK1) = assay: MIC against standard strains (Test Example 3); assay type: cell-based; details: Escherichia coli
# Procedure: as §2, §3, §4
# E. coli NIHJ JC-2 = assay: MIC against standard strains (Test Example 3); assay type: cell-based; details: Escherichia coli, NIHJJC2; E. coli NIHJ JC-2 (Test Example 3); read-out: MIC
# Procedure: as §2, §3, §4
# K. pneumoniae IFO3317 = assay: MIC against standard strains (Test Example 3); assay type: cell-based; details: Klebsiella pneumoniae; K. pneumoniae IFO3317 (Test Example 3); read-out: MIC
# Procedure: as §2, §3, §4
# K. pneumoniae No. 42 = assay: MIC against standard strains (Test Example 3); assay type: cell-based; details: Klebsiella pneumoniae; K. pneumoniae No. 42 (Test Example 3); read-out: MIC
# Procedure: as §2, §3, §4
# M. Morganii IFO3848 = assay: MIC against standard strains (Test Example 3); assay type: cell-based; details: Morganella morganii; M. Morganii IFO3848 (Test Example 3); read-out: MIC
# Procedure: as §2, §3, §4
# M. luteus ATCC 9341 = assay: MIC against standard strains (Test Example 3); assay type: cell-based; details: Micrococcus luteus, ATCC9341; M. luteus ATCC 9341 (Test Example 3); read-out: MIC
# Procedure: as §2, §3, §4
# P. aeruginosa NCTC10490 = assay: MIC against standard strains (Test Example 3); assay type: cell-based; details: Pseudomonas aeruginosa; P. aeruginosa NCTC10490 (Test Example 3); read-out: MIC
# Procedure: as §2, §3, §4
# P. mirabilis IFO3849 = assay: MIC against standard strains (Test Example 3); assay type: cell-based; details: Proteus mirabilis; P. mirabilis IFO3849 (Test Example 3); read-out: MIC
# Procedure: as §2, §3, §4
# P. vulugaris OX-19 = assay: MIC against standard strains (Test Example 3); assay type: cell-based; details: P. vulugaris OX-19 (Test Example 3); read-out: MIC
# Procedure: as §2, §3, §4
# S. aureus 167 = assay: MIC against standard strains (Test Example 3); assay type: cell-based; details: Staphylococcus aureus; S. aureus 167 (MRSA) (Test Example 3); read-out: MIC
# Procedure: as §2, §3, §4
# S. aureus 195 = assay: MIC against standard strains (Test Example 3); assay type: cell-based; details: Staphylococcus aureus; S. aureus 195 (MRSA) (Test Example 3); read-out: MIC
# Procedure: as §2, §3, §4
# S. aureus 209p JC-1 = assay: MIC against standard strains (Test Example 3); assay type: cell-based; details: Staphylococcus aureus; S. aureus 209p JC-1 (Test Example 3); read-out: MIC
# Procedure: as §2, §3, §4
# S. aureus Smith = assay: MIC against standard strains (Test Example 3); assay type: cell-based; details: Staphylococcus aureus; S. aureus Smith (Test Example 3); read-out: MIC
# Procedure: as §2, §3, §4
# S. epidemidis IAM1296 = assay: MIC against standard strains (Test Example 3); assay type: cell-based; details: S. epidemidis IAM1296 (Test Example 3); read-out: MIC
# Procedure: as §2, §3, §4
# S. marcescens IAM1184 = assay: MIC against standard strains (Test Example 3); assay type: cell-based; details: Serratia marcescens; S. marcescens IAM1184 (Test Example 3); read-out: MIC
# Procedure: as §2, §3, §4
# clinically isolated MRSA [2] = assay: Antibacterial potency against clinically isolated MRSA (Test Example 4); assay type: cell-based, methicillin-resistant Staphylococcus aureus; details: Staphylococcus aureus, 52 strains of clinically isolated MRSA; for MIC50: concentration inhibiting growth of 50% of the strains (Test Example 4), read-out: MIC50; for MIC90: concentration inhibiting growth of 90% of the strains (Test Example 4), read-out: MIC90
# Procedure: as §1
# MIC 50 and MIC 90 were determined for each of the 52 strains of clinically isolated MRSA according to the same method as used in Test Example 2.
# VCM (vancomycin) was used as control agent.
SMILES,MIC (A. calcoaceticos T59),MIC (A. faecalis ATCC3750),MIC (B. subtilis ATCC6633),MIC (C. freundii ATCC8090),MIC (E. cloacae ATCC13407),MIC (E. coli CSH2 (RE45)),MIC (E. coli CSH2 (RK1)),MIC (E. coli NIHJ JC-2),MIC (K. pneumoniae IFO3317),MIC (K. pneumoniae No. 42),MIC (M. Morganii IFO3848),MIC (M. luteus ATCC 9341),MIC (P. aeruginosa NCTC10490),MIC (P. mirabilis IFO3849),MIC (P. vulugaris OX-19),MIC (S. aureus 167),MIC (S. aureus 195),MIC (S. aureus 209p JC-1),MIC (S. aureus Smith),MIC (S. epidemidis IAM1296),also measured
"CN(C)c1ccc(O)c2c1C[C@H]1C[C@H]3[C@H](N(C)C)C(O)=C(C(N)=O)C(=O)[C@@]3(O)C(O)=C1C2=O [MINO, minocycline, reference compound]",,,,,,,,,,,,,,,,,,,,,MIC50 (clinically isolated MRSA [1]; concentration inhibiting growth of 50% of the strains (Test Example 2)): 0.2 µg/mL; MIC90 (clinically isolated MRSA [1]; concentration inhibiting growth of 90% of the strains (Test Example 2)): 1.5 µg/mL
"CCN(CC)C(=O)c1ccc[n+](CC2=C(C(=O)[O-])N3C(=O)[C@@H](NC(=O)/C(=N\O)c4csc(N)n4)[C@H]3SC2)c1 [Compound (14), 7β-[2-(2-aminothiazol-4-yl)-2-syn-hydroxyiminoacetamido]-3-[(3-N,N-diethylcarbamoyl-I-pyridinio)methyl]-3-cephem-4-carboxylic acid chloride]",12.5 µg/mL,3.13 µg/mL,0.39 µg/mL,0.78 µg/mL,3.13 µg/mL,0.78 µg/mL,3.13 µg/mL,0.78 µg/mL,0.78 µg/mL,3.13 µg/mL,0.39 µg/mL,0.2 µg/mL,6.25 µg/mL,1.56 µg/mL,0.78 µg/mL,12.5 µg/mL,6.25 µg/mL,0.78 µg/mL,0.78 µg/mL,0.39 µg/mL,MIC (S. marcescens IAM1184): 0.78 µg/mL; MIC50 (clinically isolated MRSA [2]): 6.77 µg/mL; MIC90 (clinically isolated MRSA [2]): 11.8 µg/mL
"Cc1nc(-c2ccc[n+](CC3=C(C(=O)[O-])N4C(=O)[C@@H](NC(=O)/C(=N\O)c5csc(N)n5)[C@H]4SC3)c2)cs1 [Compound (11), 7β-[2-(2-aminothiazol-4-yl)-2-syn-hydroxyiminoacetamido]-3-[[3-(2-methylthiazol-4-yl)-I-pyridinio]methyl]-3-cephem-4-carboxylic acid chloride]",25 µg/mL,3.13 µg/mL,0.2 µg/mL,0.39 µg/mL,3.13 µg/mL,0.39 µg/mL,0.78 µg/mL,0.39 µg/mL,0.2 µg/mL,0.78 µg/mL,0.1 µg/mL,0.05 µg/mL,6.25 µg/mL,0.78 µg/mL,0.2 µg/mL,3.13 µg/mL,1.56 µg/mL,0.2 µg/mL,0.39 µg/mL,0.1 µg/mL,MIC (S. marcescens IAM1184): 0.39 µg/mL; MIC50 (clinically isolated MRSA [2]): 1.85 µg/mL; MIC90 (clinically isolated MRSA [2]): 3.04 µg/mL
"CNc1nc(-c2cc[n+](CC3=C(C(=O)[O-])N4C(=O)[C@@H](NC(=O)/C(=N\O)c5csc(N)n5)[C@H]4SC3)cc2)cs1 [Compound (12), 7β-[2-(2-aminothiazol-4-yl)-2-syn-hydroxyiminoacetamido]-3-[[4-(2-methylaminothiazol-4-yl)-1-pyridinio]methyl]-3-cephem-4-carboxylic acid chloride]",50 µg/mL,1.56 µg/mL,0.2 µg/mL,0.39 µg/mL,1.56 µg/mL,0.2 µg/mL,0.39 µg/mL,0.2 µg/mL,0.1 µg/mL,0.78 µg/mL,0.05 µg/mL,0.05 µg/mL,12.5 µg/mL,0.78 µg/mL,0.1 µg/mL,5.25 µg/mL,3.13 µg/mL,0.39 µg/mL,0.39 µg/mL,0.2 µg/mL,MIC (S. marcescens IAM1184): 0.78 µg/mL; MIC50 (clinically isolated MRSA [2]): 1.86 µg/mL; MIC90 (clinically isolated MRSA [2]): 4.61 µg/mL
